Values joined by “and” are separate entries in the source; they are usually repeats but may differ in a detail not shown here. Equal values may be shown once. Read-outs that look alike come from different tables or passages of the source.
Legend:
[1] = target: T1, wild-type TPM3-NTRK1 in NIH-3T3 cells (Homo sapiens, UniProt P04629+P06753); test: Immunoblot of p-NTRK1 in NIH-3T3 cells, wild-type TPM3-NTRK1; format: cell-based; conditions: 0.2 μM and 0.5 μM, 4 hours
T1 construct: expressed in transfected cells

KM-12 cells [2] = test: KM-12 anchorage dependent cell proliferation (CellTiter-Glo); format: cell-based; conditions: Homo sapiens, KM12, 72 h, read-out: IC50 KM-12 cell proliferation (anchorage dependent)
[3] = system: KM-12 xenograft tumors (TPM3-NTRK1); test: KM-12 xenograft tumor model; format: in vivo, athymic nude mice
[4] = system: MKNK1/2 (p-eIF4E S209) in KM-12 cells; test: Western blot of p-eIF4E S209 in KM-12 cells; format: cell-based
Protocol: (§1) 20 μg NTRK1 fusion confirmation
(§2) T20 (ThermoScientific, Rockford, IL) for 30 minutes. MiniPrep cat# R2051 following manufacturer ’s protocol. […]
(§3) (1:2000) (Sigma-Aldrich), HRP-conjugated mouse or primers. The primer sequences are TPM3_Ex3B_F5:
(§4) Chalfont, UK). All western blots were developed using Ex12_R5: […]. PCR was […]

MO-91 xenograft tumors = system: MO-91 xenograft tumors; design: method as in PMID 23811600; conditions: 50 mg/kg once daily; cited from earlier work
KM-12 cells [5] = test: KM-12 anchorage independent growth in alginate; format: cell-based; conditions: Homo sapiens, KM12, 72 h, read-out: IC50 KM-12 anchorage independent growth
[6] = system: EL1989 PDX tumors (TPM3-NTRK1); test: Colorectal carcinoma PDX model EL1989; conditions: mouse, in vivo
MO-91 cells (ETV6-NTRK3) = conditions: read-out: IC50 proliferation of MO-91 cells; in vitro; cited from earlier work
[7] = target: T2, mutant G595R TPM3-NTRK1 in NIH-3T3 cells (Homo sapiens, UniProt P04629+P06753, G595R); test: Immunoblot of p-NTRK1 in NIH-3T3 cells, G595R TPM3-NTRK1; format: cell-based; conditions: 0.2 μM and 0.5 μM, 4 hours
T2 construct: expressed in transfected cells

[8] = system: p-eIF4E in NIH-3T3 cells expressing TPM3-NTRK1; test: Immunoblot of p-eIF4E in NIH-3T3 TPM3-NTRK1 cells; format: cell-based
Protocol: 350 μg/ml hygromycin selection for 14 days. Each stable CO). Percent Ki67+ area was calculated as the percentage
wild-type or mutated NTRK1. Control vector containing positive. […]
as §1
T20 (ThermoScientific, Rockford, IL) for 30 minutes. MiniPrep cat# R2051 following manufacturer ’s protocol.
A forward primer upstream of the
as §3, §4

[9] = system: p-ERK (MAPK 42/44) in KM-12 cells; test: Western blot of phosphorylated MAPK 42/44 (ERK) in KM-12 cells; format: cell-based
Protocol: as §1, §2, §3, §4

T1 sequence (P06753+P04629 fused): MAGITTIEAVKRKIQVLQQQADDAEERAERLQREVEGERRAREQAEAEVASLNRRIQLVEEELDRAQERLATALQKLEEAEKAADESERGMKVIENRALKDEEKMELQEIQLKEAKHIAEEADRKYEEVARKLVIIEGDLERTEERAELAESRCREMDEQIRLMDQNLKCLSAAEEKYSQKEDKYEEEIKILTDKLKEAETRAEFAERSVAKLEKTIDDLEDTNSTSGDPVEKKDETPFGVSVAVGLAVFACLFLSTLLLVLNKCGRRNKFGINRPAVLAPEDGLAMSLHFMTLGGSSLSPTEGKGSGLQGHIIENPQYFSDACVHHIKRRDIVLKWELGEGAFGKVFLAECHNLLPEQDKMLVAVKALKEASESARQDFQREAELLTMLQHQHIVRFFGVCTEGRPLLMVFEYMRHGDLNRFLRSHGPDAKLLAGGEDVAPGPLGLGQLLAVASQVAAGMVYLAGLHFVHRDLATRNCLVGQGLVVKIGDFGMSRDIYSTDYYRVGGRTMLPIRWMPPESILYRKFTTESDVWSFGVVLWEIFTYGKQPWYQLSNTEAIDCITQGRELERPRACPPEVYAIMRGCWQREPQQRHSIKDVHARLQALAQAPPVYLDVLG
T2 sequence (P04629 510-796 G595R limits assumed, one chain of several): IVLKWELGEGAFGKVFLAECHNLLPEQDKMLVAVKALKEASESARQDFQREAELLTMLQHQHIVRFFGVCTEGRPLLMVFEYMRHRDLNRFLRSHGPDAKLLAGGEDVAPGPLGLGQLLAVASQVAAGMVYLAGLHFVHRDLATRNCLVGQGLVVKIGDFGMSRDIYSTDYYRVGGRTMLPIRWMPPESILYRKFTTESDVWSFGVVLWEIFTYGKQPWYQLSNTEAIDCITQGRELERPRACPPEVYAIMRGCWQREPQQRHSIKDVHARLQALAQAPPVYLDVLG

Row | SMILES | p-NTRK1 (Y490) signaling, wild-type TPM3-NTRK1, in words [1] | IC50 (KM-12 cells [2]) | Animal weights, KM-12 xenograft study ([3]; merestinib 24 mg/kg once daily, crizotinib 25 mg/kg twice daily, measured twice weekly, relative to vehicle) | T/C, KM-12 xenograft ([3]; mouse, in vivo) | p-eIF4E reduction (MKNK1/2 inhibition, in words) [4] | Effect on MO-91 xenograft tumors (MO-91 xenograft tumors) | IC50 (KM-12 cells [5]) | % Necrosis/Mucin, individual animal [6] | % Necrosis/Mucin, mean per group [6] | T/C, EL1989 PDX [6] | IC50 (MO-91 cells (ETV6-NTRK3)) | p-NTRK1, mutant G595R TPM3-NTRK1, in words [7] | p-eIF4E reduction, in words [8] | p-ERK inhibition (in words) [9] | p-eIF4E reduction (MKNK1/2 inhibition, in words) ([4]; KM-12 cells, 2 hours, western blot, b12: 100, 500, 1000 nM) | Concentration giving total inhibition of phosphorylation of MAPK 42/44 (ERK) ([9]; KM-12 cells, 2 hours, 3.9-1000 nM, western blot)
1 | C[C@@H](Oc1cc(-c2cnn(C3CCNCC3)c2)cnc1N)c1c(Cl)ccc(F)c1Cl [Crizotinib, reference compound] | reduced | 0.092 µM | no significant weight alteration | 39.5% | small reduction of p-eIF4E | induced tumor regression | 0.276 µM | 80% (2×) and 20% and 95% and 30% and 10% | 50% | 13.5% | 0.01 µM | little effect | did not show reduction in p-eIF4E | dose dependent inhibition | – | –
2 | CN1CCN(c2ccc(C(=O)Nc3n[nH]c4ccc(Cc5cc(F)cc(F)c5)cc34)c(NC3CCOCC3)c2)CC1 [Entrectinib, reference compound] | – | – | – | – | small reduction of p-eIF4E | – | – | – | – | – | – | – | – | – | – | –
3 | O=C(Nc1cnn2ccc(N3CCC[C@@H]3c3cc(F)ccc3F)nc12)N1CC[C@H](O)C1 [Larotrectinib, reference compound] | reduced | – | – | – | – | – | – | – | – | – | – | partial p-NTRK1 inhibition | – | – | small reduction of p-eIF4E | 15.6 nM
